Data taken from patent US20060154892A1, “Procedure to block the replication of reverse transcriptase dependent viruses by the use of inhibitors of deoxynucleotides synthesis” (priority 1993, published 2006).
Where two headings read alike, the source gives them in different places.

Tests used:
HIV-1 IIIB [1] = assay: expected p24 expression in HIV-1 IIIB infected PHA-stimulated PBL with hydroxyurea and/or nucleoside analogs (Example 10); assay type: cell-based
Description: PBL isolated from healthy donors are stimulated with PHA and IL-2 for 48 hours using standard protocols. At the same time, the cells are pre-treated with hydroxyurea alone or in combination with either ddI or fluorinated derivatives of chain-terminating nucleosides.

HIV-1 RT [2] = target: T1, HIV-1 RT (Human immunodeficiency virus type 1 group M subtype B, UniProt P04585); assay: Km of HIV-1 RT for dNTP, 600-base globin mRNA template; assay type: biochemical; details: 600-base globin mRNA as template
HIV-1 [3] = test system: HIV-1
Description: In the latter procedure, we measured p24 production during the course of an in vitro infection to assess the inhibition of HIV-1 replication in activated PBL.

HIV-1 [4] = details: for effect on HIV-1 replication at the lowest levels: in some cases, only when used individually, FIG. 3
Description: PBL from healthy donors were infected for 2 hour at 37° C. with HIV-1 [HTLV-IIIB] (m.o.i.=1) after 2 days stimulation with PHA and Interleukin-2 (IL-2). […] Every 3-4 days, supernatant was harvested for p24 analysis, cells were counted and fresh supernatant and drugs were added. Samples were analyzed for (a) p24 production in the supernatant, (b) count of viable cells, and (c) ratios between the values expressed in (a) and (b).
PBL were isolated and stimulated for 2 days with PHA and IL-2. […] The extent of HIV-1 infection was analyzed as described in Example 5. Samples were tested for (a) p24 production in the supernatant, (b) viable cell count.

PBL [5] = details: doses corresponding to plasma concentrations in treated AIDS patients; cited from earlier work
[6] = test system: dNTP pools in PHA stimulated PBL; assay: dNTP pools in HIV-1 infected PHA-stimulated PBL treated with hydroxyurea (enzyme assay); assay type: cell-based, human; details: 1 mM hydroxyurea
Description: PBLs were cultured in the presence or absence of phytohemagglutinin A (PHA) at 10 μg/ml for 48 hours. Intracellular dNTP were extracted with 60% methanol and were examined by an enzyme assay using synthetic oligonucleotides (P. A. Sherman and A. J. Fyfe, 1989 Anal. Biochem. 180:222). Data represent the mean value of three experiments. […] The cellular volume of PBL was measured using a Coulter counter analizer and found to be approximately 0.25 μl/10^6 cells for quiescent PBL and 0.38 μl/10^6 cells for stimulated PBL, respectively.
Cell aliquots were harvested 24, 48 and 72 hours after infection and analyzed for the rate of dNTP synthesis inhibition (Sherman and Fyfe, supra) measured as the percentage of dNTP levels compared to the control cells.

HIV-1 RT [7] = target: T1, HIV-1 RT; assay: in vitro activity of recombinant HIV-1 RT (primer extension assay); assay type: biochemical; details: 200 mM
Description: We also assessed the in vitro activity of recombinant HIV-1 RT at dNTP concentrations that were equivalent to those found in quiescent and stimulated PBL. DNA was synthesized using a globin mRNA template and an oligo dT16 primer (a primer extension assay). The HIV-1 RT reaction mixture contained 50 mM Tris-HCl (pH 8.0), 6 mM MgCl2, 76 mM KCl, 0.5 mM DTT, 80 nM globin mRNA primed with oligo dT16 in 1:5 ratio, and dNTP at (a) the concentrations equivalent to quiescent cells and (b) the concentrations equivalent to stimulated cells as described in Table 1. Recombinant HIV-1 RT (obtained from American Biotechnologies) was used at 5 U/ml.

HIV-1 [HTLV-IIIB] = assay: p24 production in activated PBL infected with HIV-1 [HTLV-IIIB], drugs added after infection; assay type: cell-based; details: for inhibition at 1000 µM: Human immunodeficiency virus 1, IIIB, PBMC
PBL [8] = assay: count of viable cells in HIV-1 infected activated PBL culture; assay type: cell-based, human; details: for Viable cells: PBMC, 1 mM Hydroxyurea
HIV-1 strain Ba-L = assay: p24 production in primary human macrophages infected with HIV-1 Ba-L; assay type: cell-based; details: for inhibition at 1000 µM: Human immunodeficiency virus 1, BAL, Macrophage
Description: Macrophages were obtained by cell adhesion after purification of PBL from healthy donors. After 14 days treatment with granulocyte-macrophage-colony-stimulating factor, cells were infected overnight with the HIV-1 strain Ba-L (Gartner et al., Science 233:215 (1986)). […] Supernatants were harvested ever 4-5 days for p24 analysis and fresh supernatant and drugs were added.
Percentages of HIV-1 inhibition were calculated based on p24 production compared to the untreated control. Drug treatment of macrophages was suspended after 14 days.

HIV-1 [9] = assay: administration of hydroxyurea to HIV-1 seropositive volunteers, CD4+ T-cell count (Example 9); assay type: in vivo, human; details: 20-40 mg per kg per day, after one month of drug treatment
Description: One or more HIV-1 seropositive volunteers are first identified. Blood samples drawn from the volunteers are assayed for CD4^+T-cells using any suitable quantitation means. Such quantitation means include, but are not limited to, the flow cytometer. Over a period of from several weeks to months, the number of CD4^+T-cells is observed to decrease steadily as an indicator of disease progression.
The nucleoside analogs can be any of ddI, ddC or AZT, or combinations thereof.
When hydroxyurea is used in conjunction with a nucleoside analog, the dosage of the analog is determined according to convention in the medical and pharmaceutical arts.
After one month of drug treatment blood samples are again drawn and assayed for CD4^+T-cells.

HIV-1 IIIB [10] = details: for RT Activity: 1 mM hydroxyurea
[11] = test system: primary human macrophages; details: for Viable cells: Macrophages
[12] = cited from earlier work
[13] = nucleoside analog 20 μM, day 12

Compound: Nc1ncnc2c1ncn2[C@@H]1O[C@H](CO)C[C@@H]1F [2′-F-dd-ara-A]
- p24 Expression after Infection (HIV-1 IIIB [1]; nucleoside analog 20 μM, day 4): Low
- p24 Expression after Infection (HIV-1 IIIB [1]; nucleoside analog 20 μM, day 8): Medium
- p24 Expression after Infection (HIV-1 IIIB [1]; [13]): Medium

Compound: Nc1nc2c(ncn2[C@@H]2O[C@H](CO)C[C@@H]2F)c(=O)[nH]1 [2′-F-dd-ara-G]
- p24 Expression after Infection (HIV-1 IIIB [1]; nucleoside analog 20 μM, day 4): Low
- p24 Expression after Infection (HIV-1 IIIB [1]; nucleoside analog 20 μM, day 8): Medium
- p24 Expression after Infection (HIV-1 IIIB [1]; [13]): Medium

Compound: O=c1[nH]cnc2c1ncn2[C@@H]1O[C@H](CO)C[C@@H]1F [2′-F-dd-ara-I]
- p24 Expression after Infection (HIV-1 IIIB [1]; nucleoside analog 20 μM, day 4): Low
- p24 Expression after Infection (HIV-1 IIIB [1]; nucleoside analog 20 μM, day 8): Medium
- p24 Expression after Infection (HIV-1 IIIB [1]; [13]): Medium

Compound: Nc1ncnc2c1ncn2[C@H]1C[C@H](O)[C@@H](COP(=O)(O)OP(=O)(O)OP(=O)(O)O)O1 [dATP]
- Km (HIV-1 RT [2]): 2.6 µM

Compound: Nc1ccn([C@H]2C[C@H](O)[C@@H](COP(=O)(O)OP(=O)(O)OP(=O)(O)O)O2)c(=O)n1 [dCTP]
- Km (HIV-1 RT [2]): 3.8 µM

Compound: Nc1nc2c(ncn2[C@H]2C[C@H](O)[C@@H](COP(=O)(O)OP(=O)(O)OP(=O)(O)O)O2)c(=O)[nH]1 [dGTP]
- Km (HIV-1 RT [2]): 3.9 µM

Compound: Cc1cn([C@H]2C[C@H](O)[C@@H](COP(=O)(O)OP(=O)(O)OP(=O)(O)O)O2)c(=O)[nH]c1=O [dTTP]
- Km (HIV-1 RT [2]): 4 µM

Compound: O=c1[nH]cnc2c1ncn2[C@H]1CC[C@@H](CO)O1 [ddI, didanosine]
- p24 Expression after Infection (HIV-1 IIIB [1]; nucleoside analog 20 μM, day 4): Low
- p24 Expression after Infection (HIV-1 IIIB [1]; nucleoside analog 20 μM, day 8): Medium
- p24 Expression after Infection (HIV-1 IIIB [1]; [13]): Medium
- p24 after infection (HIV-1 [3]; ddI 0.2 μM, day 4): 4 ng/mL
- p24 after infection (HIV-1 [3]; ddI 0.2 μM, day 8): 116 ng/mL
- p24 after infection (HIV-1 [3]; ddI 0.2 μM, day 12): 197 ng/mL
- p24 after infection (HIV-1 [3]; ddI 1 μM, day 4): 3 ng/mL
- p24 after infection (HIV-1 [3]; ddI 1 μM, day 8): 90 ng/mL
- p24 after infection (HIV-1 [3]; ddI 1 μM, day 12): 196 ng/mL
- p24 after infection (HIV-1 [3]; ddI 5 μM, day 4): 1 ng/mL
- p24 after infection (HIV-1 [3]; ddI 5 μM, day 8): 58 ng/mL
- p24 after infection (HIV-1 [3]; ddI 5 μM, day 12): 125 ng/mL
- p24 after infection (HIV-1 [3]; ddI 20 μM, day 4): 1 ng/mL
- p24 after infection (HIV-1 [3]; ddI 20 μM, day 8): 25 ng/mL
- p24 after infection (HIV-1 [3]; ddI 20 μM, day 12): 51 ng/mL
- effect on HIV-1 replication at the lowest levels (HIV-1 [4]): stimulated HIV-1 replication
- cytotoxicity (PBL [5]): low

Compound: NC(=O)NO [hydroxyurea]
- dNTP pools in stimulated PBL [6]: substantially depleted
- direct inhibition of RT enzymatic activity (HIV-1 RT [7]): did not directly inhibit RT enzymatic activity
- inhibition at 1000 µM (HIV-1 [HTLV-IIIB]; 96 h): 100%
- inhibition at 1000 µM (HIV-1 [HTLV-IIIB]; 168 h): 100%
- inhibition at 1000 µM (HIV-1 [HTLV-IIIB]; 240 h): 100%
- inhibition at 1000 µM (HIV-1 [HTLV-IIIB]; 336 h): 100%
- HIV-1 replication (HIV-1 [HTLV-IIIB]; continuous treatment with 1 mM hydroxyurea, activated PBL): completely blocked HIV-1 replication
- antiviral effect, p24 normalized to number of viable cells (HIV-1 [HTLV-IIIB]; low concentrations, FIG. 1c): not mediated by cytotoxicity
- HIV-1 replication (p24 in supernatant) (HIV-1 [HTLV-IIIB]; used alone at low concentrations, FIG. 1a): inhibited in a dose-dependent manner
- cytotoxic effects (PBL [8]; 0.1 mM hydroxyurea, continuous exposure, FIG. 1b): some cytotoxic effects
- toxicity (PBL [8]; 1 mM hydroxyurea, activated PBL): toxic effects at these concentrations were observed early
- Viable cells (PBL [8]; day 4): 500 thousands/ml
- Viable cells (PBL [8]; day 7): 185 thousands/ml
- Viable cells (PBL [8]; day 10): 87 thousands/ml
- Viable cells (PBL [8]; day 14): 36 thousands/ml
- cytostatic and cytotoxic effects (PBL [8]; decreased drug concentration, FIG. 1b): virtually disappeared
- inhibition at 1000 µM (HIV-1 strain Ba-L; 96 h): 100%
- inhibition at 1000 µM (HIV-1 strain Ba-L; 168 h): 100%
- inhibition at 1000 µM (HIV-1 strain Ba-L; 240 h): 100%
- inhibition at 1000 µM (HIV-1 strain Ba-L; 336 h): 100%
- HIV-1 replication (HIV-1 strain Ba-L; continuous treatment with 1 mM hydroxyurea, macrophages): completely blocked HIV-1 replication
- block of HIV-1 replication (HIV-1 strain Ba-L; hydroxyurea as low as 0.05 mM, macrophages): > 99.9%
- HIV-1 replication after discontinuing the drug treatment (HIV-1 strain Ba-L; infected macrophages, several weeks after discontinuing, in some experiments): absence of HIV-1 replication
- dose-dependent inhibition of HIV-1 production in macrophages compared with PBL (HIV-1 strain Ba-L; same donor for PBL and macrophages): consistently more potent than with primary PBL
- p24 Expression after Infection (HIV-1 IIIB [1]; HU 50 μM, day 4): Low
- p24 Expression after Infection (HIV-1 IIIB [1]; HU 50 μM, day 8): Medium
- p24 Expression after Infection (HIV-1 IIIB [1]; HU 50 μM, day 12): High
- CD4+ T-cell population (HIV-1 [9]): stabilized or increased
- RT Activity (HIV-1 IIIB [10]; day 2): 0.892 cpm/ml × 1000
- RT Activity (HIV-1 IIIB [10]; day 5): 0.589 cpm/ml × 1000
- RT Activity (HIV-1 IIIB [10]; day 9): 0.434 cpm/ml × 1000
- viral expression of RT (HIV-1 IIIB [10]; pre-infection treatment with 1 mM hydroxyurea): significantly reduced
- p24 after infection (HIV-1 [3]; HU 10 μM, day 4): 4 ng/mL
- p24 after infection (HIV-1 [3]; HU 10 μM, day 8): 100 ng/mL
- p24 after infection (HIV-1 [3]; HU 10 μM, day 12): 204 ng/mL
- p24 after infection (HIV-1 [3]; HU 50 μM, day 4): 3 ng/mL
- p24 after infection (HIV-1 [3]; HU 50 μM, day 8): 113 ng/mL
- p24 after infection (HIV-1 [3]; HU 50 μM, day 12): 148 ng/mL
- p24 after infection (HIV-1 [3]; HU 100 μM, day 4): 2 ng/mL
- p24 after infection (HIV-1 [3]; HU 100 μM, day 8): 111 ng/mL
- p24 after infection (HIV-1 [3]; HU 100 μM, day 12): 116 ng/mL
- cytotoxic effects [11]: no cytotoxic effects were observed
- Viable cells ([11]; 1 mM Hydroxyurea, day 4): 300 thousands/cm^2
- Viable cells ([11]; 1 mM Hydroxyurea, day 7): 280 thousands/cm^2
- Viable cells ([11]; 1 mM Hydroxyurea, day 10): 270 thousands/cm^2
- Viable cells ([11]; 1 mM Hydroxyurea, day 14): 270 thousands/cm^2
- Viable cells ([11]; day 21, drug suspension after 14 days): 260 thousands/cm^2
- Viable cells ([11]; day 28, drug suspension after 14 days): 240 thousands/cm^2
- Viable cells ([11]; day 35, drug suspension after 14 days): 190 thousands/cm^2
- effect on HIV-1 replication at the lowest levels (HIV-1 [4]): stimulated HIV-1 replication
- HIV-1 replication (HIV-1 [4]; patient PBL, FIG. 3a): inhibited HIV-1 replication in a dose-dependent manner
- blood concentration during standard clinical protocols ([12]; humans): ~1 mM
- absorption ([12]; oral ingestion): readily absorbed after oral ingestion
